Laboratory results reported in US6703397B2, “Pyrimidinyl methyl indole derivatives with antibacterial activity” (Basilea Pharmaceutica AG, priority 2000, dated 2004).
pIC50: −log10 of the molar value. ≈ marks a conversion by molar mass, not a printed value. Where two headings read alike, the source gives them in different places.

Tests used:
[1] = test system: Streptococcus pneumoniae 1/1; assay: MIC against Streptococcus pneumoniae 1/1 (trimethoprim- and penicillin-resistant clinical isolate, serotype 6); format: cell-based
Experimental: The following Tables 1 and 2 contain inhibitory concentrations determined in the above test for representative members of the class of compound defined by formula I. The following microorganisms were tested: […]
Col. 2: MIC Spn1/1; μg/ml (Streptococcus pneumoniae 1/1, Trimethoprim- and Penicillin-resistant, Serotype 6; clinical isolate, stored at −80° C.). Lit.: H. Locher et al., Can. J. Infect. Dis. 6: Suppl. C, p 469C.

[2] = target: purified DHFR of strain Spn1/1 (Streptococcus pneumoniae serotype 4, UniProt Q54801, E20D/I100L/L135F/P70S/Q81H); assay: biochemical
Source text: Col. 3: DHFR Spn1/1; μM)—the IC50-values in μM against the purified DHFR of the above strain Spn1/1; of Streptococcus pneumoniae.

[3] = test system: Streptococcus pneumoniae ATCC 49619; assay: MIC against Streptococcus pneumoniae ATCC 49619 (trimethoprim- and penicillin-susceptible reference strain); format: cell-based
Experimental: The following Tables 1 and 2 contain inhibitory concentrations determined in the above test for representative members of the class of compound defined by formula I. The following microorganisms were tested: Col. 1: […]

[4] = Streptococcus pneumoniae 1/1, trimethoprim- and penicillin-resistant, serotype 6, read-out: Spn 1/1 MIC
[5] = ATCC49619, Streptococcus pneumoniae ATCC 49619, trimethoprim- and penicillin-susceptible, read-out: Spn 49619 MIC

Chain of purified DHFR of strain Spn1/1 (Q54801 whole entry E20D/P70S/Q81H/I100L/L135F): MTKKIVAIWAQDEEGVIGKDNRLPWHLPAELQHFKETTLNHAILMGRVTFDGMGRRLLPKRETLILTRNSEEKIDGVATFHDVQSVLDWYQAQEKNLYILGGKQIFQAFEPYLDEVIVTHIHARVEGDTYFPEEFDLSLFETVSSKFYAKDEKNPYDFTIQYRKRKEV

SMILES | MIC [1, 4] | pIC50 [2] | MIC [3, 5] | MIC ([1]; Streptococcus pneumoniae, 1/1, read-out: Spn 1/1 MIC) | MIC ([3]; Streptococcus pneumoniae, ATCC49619, read-out: Spn 49619 MIC)
CCn1cc(CN2CCOCC2)c2c(OS(=O)(=O)C(C)C)cc(Cc3cnc(N)nc3N)cc21 [Example 10b, Propane-2-sulfonic acid 6-(2,4-diamino-pyrimidin-5-ylmethyl)-1-ethyl-3-morpholino-4-ylmethyl-1H-indol-4-ester] | 8 µg/mL (≈ 16.4 µM) | 6.96 | 0.5 µg/mL (≈ 1.02 µM) | – | –
CCn1ccc2c(OC(C)C)cc(Cc3cnc(N)nc3N)cc21 [Example 7c, 5-(1-Ethyl-4-isopropoxy-1H-indol-6-ylmethyl)-pyrimidine-2,4-diamine] | 4 µg/mL (≈ 12.3 µM) | 6.85 | 0.25 µg/mL (≈ 0.768 µM) | – | –
CCn1cc(Br)c2c(OCC3CC3)cc(Cc3cnc(N)nc3N)cc21 [Example 13, 5-(3-Bromo-4-cyclopropylmethoxy-1-ethyl-1H-indol-6-ylmethyl)-pyrimidine-2,4-diamine] | 4 µg/mL (≈ 9.61 µM) | 7.38 | 0.125 µg/mL (≈ 0.3 µM) | – | –
CCOc1cc(Cc2cnc(N)nc2N)cc2c1cc(C)n2CC [Example 15a, 5-(4-Ethoxy-1-ethyl-2-methyl-1H-indol-6-ylmethyl)-pyrimidine-2,4-diamine] | 8 µg/mL (≈ 24.6 µM) | 7.25 | 0.25 µg/mL (≈ 0.768 µM) | – | –
CCn1cc(C=O)c2c(OS(=O)(=O)C(C)C)cc(Cc3cnc(N)nc3N)cc21 [Example 11, Propane-2-sulfonic acid 6-(2,4-diamino-pyrimidin-5-ylmethyl)-1-ethyl-3-formyl-1H-indol-4-yl ester] | – | 7.03 | – | > 8 µg/mL | 0.25 µg/mL (≈ 0.599 µM)
CCC(C)S(=O)(=O)Oc1cc(Cc2cnc(N)nc2N)cc2c1ccn2CC (racemic) [Example 8d, rac-Butane-2-sulfonic acid 6-(2,4-diamino-pyrimidin-5-ylmethyl)-1-ethyl-1H-indol-4-yl ester] | 1 µg/mL (≈ 2.48 µM) | 8.74 | 0.03 µg/mL (≈ 0.0743 µM) | – | –
CCn1ccc2c(OCC3CCC3)cc(Cc3cnc(N)nc3N)cc21 [Example 7f, 5-(4-Cyclobutylmethoxy-1-ethyl-1H-indol-6-ylmethyl)-pyrimidine-2,4-diamine] | 2 µg/mL (≈ 5.69 µM) | 7.39 | 0.5 µg/mL (≈ 1.42 µM) | – | –
CCn1cc(-c2cccc(OC)c2)c2c(OC)cc(Cc3cnc(N)nc3N)cc21 [Example 17b, 5-[1-Ethyl-4-methoxy-3-(3-methoxy-phenyl)-1H-indol-6-ylmethyl]-pyrimidine-2,4-diamine] | 8 µg/mL (≈ 19.8 µM) | 8.37 | 0.5 µg/mL (≈ 1.24 µM) | – | –
Cn1ccc2c(OCC3CC3)cc(Cc3cnc(N)nc3N)cc21 [Example 5a, 5-(4-Cyclopropylmethoxy-1-methyl-1H-indol-6-ylmethyl)-pyrimidine-2,4-diamine] | 4 µg/mL (≈ 12.4 µM) | 6.96 | 0.25 µg/mL (≈ 0.773 µM) | – | –
